The text below walks through data of publication PMC9147192, “Small Molecule Arranged Thermal Proximity Coaggregation (smarTPCA)—A Novel Approach to Characterize Protein–Protein Interactions in Living Cells by Similar Isothermal Dose–Responses” (International Journal of Molecular Sciences, 2022).

Molecules are shown by their SMILES.

The assay has as its target T1, UBE2O (Homo sapiens, UniProt Q9C0C9).
T1 construct: endogenous in cells; host or cells: HL-60 (ATCC CCL-240)
T1 sequence (Q9C0C9 1-1292): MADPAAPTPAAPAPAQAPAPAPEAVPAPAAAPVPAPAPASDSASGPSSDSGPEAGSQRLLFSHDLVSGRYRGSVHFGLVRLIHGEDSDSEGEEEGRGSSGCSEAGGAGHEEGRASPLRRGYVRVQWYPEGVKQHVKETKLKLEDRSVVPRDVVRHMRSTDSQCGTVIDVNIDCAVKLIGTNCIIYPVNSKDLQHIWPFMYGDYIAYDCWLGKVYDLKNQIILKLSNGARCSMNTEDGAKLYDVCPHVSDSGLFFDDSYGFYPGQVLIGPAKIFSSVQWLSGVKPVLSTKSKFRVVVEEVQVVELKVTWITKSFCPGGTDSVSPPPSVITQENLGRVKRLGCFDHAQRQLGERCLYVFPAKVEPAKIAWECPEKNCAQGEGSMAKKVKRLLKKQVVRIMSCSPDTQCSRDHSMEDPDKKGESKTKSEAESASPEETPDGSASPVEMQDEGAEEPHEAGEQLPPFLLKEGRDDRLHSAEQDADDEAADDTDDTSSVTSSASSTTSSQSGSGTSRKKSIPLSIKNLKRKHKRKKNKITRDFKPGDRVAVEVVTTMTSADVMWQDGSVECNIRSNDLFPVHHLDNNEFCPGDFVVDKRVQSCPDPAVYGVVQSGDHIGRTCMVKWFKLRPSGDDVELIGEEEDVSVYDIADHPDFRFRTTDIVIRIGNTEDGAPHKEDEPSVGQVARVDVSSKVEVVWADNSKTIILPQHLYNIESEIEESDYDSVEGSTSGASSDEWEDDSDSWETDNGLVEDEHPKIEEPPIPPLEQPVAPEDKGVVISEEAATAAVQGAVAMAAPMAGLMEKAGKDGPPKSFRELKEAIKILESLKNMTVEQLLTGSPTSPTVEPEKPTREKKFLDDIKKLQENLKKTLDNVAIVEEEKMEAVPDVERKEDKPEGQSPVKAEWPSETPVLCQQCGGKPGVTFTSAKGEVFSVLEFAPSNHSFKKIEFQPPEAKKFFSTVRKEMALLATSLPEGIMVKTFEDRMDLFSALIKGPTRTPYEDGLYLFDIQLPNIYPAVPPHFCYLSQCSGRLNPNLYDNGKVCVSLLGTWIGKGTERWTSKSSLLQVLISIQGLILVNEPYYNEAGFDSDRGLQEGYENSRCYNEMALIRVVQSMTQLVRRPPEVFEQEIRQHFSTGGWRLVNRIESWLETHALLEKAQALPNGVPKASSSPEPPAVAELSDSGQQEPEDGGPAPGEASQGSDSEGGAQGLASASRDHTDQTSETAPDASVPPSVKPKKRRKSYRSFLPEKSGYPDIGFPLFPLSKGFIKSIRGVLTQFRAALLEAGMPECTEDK
Briefly: TPP-CCR in living HL-60 cells. It is filed as cell-based.

For `Cc1cnc(Nc2ccc(F)cc2Cl)nc1-c1c[nH]c(C(=O)N[C@H](CO)c2cccc(Cl)c2)c1` [ERK 11e], the Hill slope – broadly, the slope factor of the fitted curve – (TPP-CCR, living cells, UBE2O) is reported as 0.37. Besides, the “Hill slope (UBE2O)” value (living HL-60 cells, […] °C, TMT-MS) is 0.37. Moreover, the EC50 (living HL-60 cells, […] °C, TMT-MS, read-out: pEC50 (UBE2O) (converted)) is 186 nM.
